Measurements as given in US12583815B2, “Inhibitors of YAP/TAZ-TEAD oncoproteins, synthesis and use thereof” (BRIDGENE BIOSCIENCES, INC., priority 2020, dated 2026).

Target: T1, TEAD1 (Homo sapiens, UniProt P28347)
T1 construct: endogenous in cells; host or cells: MCF-7
Assay: TEAD1-Luciferase reporter assay (MCF-7 cell-based TEAD1-Luc assay)
Details: cells treated with compound overnight, luciferase chemiluminescence readout
Procedure: TEAD1-Luciferase Reporter Assay to Characterize the Pharmacological Properties of the Tead1 Covalent Inhibitors
FIG. 1 is a schematic illustration of the mechanism of TEAD1 inhibition by the disclosed compounds, which is the theoretical basis for the development of a TEAD-YAP/TAZ cell-based functional assay to characterize the pharmacological properties of the synthesized inhibitor compounds. The MCF-7 cell-based TEAD1-Luc assay for the IC50 measurement was performed as below. Compounds 2, 4, 5, and 7, representing different chemical scaffolds, were characterized. About 200 μL of culture medium was placed in each of the 10^4 cell/well in a 96-well plate. The next day the cells were treated with the synthesized compounds for overnight. The luciferase activity was measured with a chemiluminescent assay kit. Specifically, the plate was equilibrated at room temperature. […] and 50 μL of the medium was left inside. To each well was added 50 μL Luciferase reagents. The plates were gently rocked for more than about 15 minutes at room temperature. The luminescence signal was then read and recorded. Table 2 below summarizes the measured IC50 values for the disclosed compounds.

T1 sequence (P28347 whole entry): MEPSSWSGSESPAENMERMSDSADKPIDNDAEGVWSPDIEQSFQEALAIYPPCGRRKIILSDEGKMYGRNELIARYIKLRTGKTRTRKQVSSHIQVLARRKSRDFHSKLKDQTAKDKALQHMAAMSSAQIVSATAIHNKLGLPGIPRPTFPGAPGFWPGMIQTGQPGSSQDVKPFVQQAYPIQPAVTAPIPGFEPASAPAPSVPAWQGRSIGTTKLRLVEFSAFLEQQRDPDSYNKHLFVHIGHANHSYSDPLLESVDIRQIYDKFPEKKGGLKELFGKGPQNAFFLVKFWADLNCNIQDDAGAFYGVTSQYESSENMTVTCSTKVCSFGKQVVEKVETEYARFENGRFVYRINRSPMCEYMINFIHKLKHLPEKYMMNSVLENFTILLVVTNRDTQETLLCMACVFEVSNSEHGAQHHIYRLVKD

SMILES | IC50 [nM]
C=CC(=O)N1CC(Oc2ccc(C(F)(F)F)cc2)C1 [Compound 56, 1-(3-(4-(trifluoromethyl)phenoxy)azetidin-1-yl)prop-2-en-1-one] | 100 to 5000
C=CC(=O)Nc1ccc(-c2cc(C(F)(F)F)on2)c(Cl)c1 [Compound 23, N-(3-chloro-4-(5-(trifluoromethyl)isoxazol-3-yl)phenyl)acrylamide] | ≤ 100
C=CC(=O)Nc1ccc2c(c1)CCC/C2=N\OCC(C)C [Compound 49, (E)-N-(5-(isobutoxyimino)-5,6,7,8-tetrahydronaphthalen-2-yl)acrylamide] | ≤ 100
C=CC(=O)Nc1ccc(-c2cc(C3CC3)on2)cc1 [Compound 30, N-(4-(5-cyclopropylisoxazol-3-yl)phenyl)acrylamide] | 100 to 5000
C=CC(=O)Nc1ccc(-c2cc(C(F)(F)F)on2)cc1 [Compound 28, N-(4-(5-(trifluoromethyl)isoxazol-3-yl)phenyl)acrylamide] | ≤ 100
C=CC(=O)NC1CCC(Oc2cc(C(F)(F)F)on2)C1 (stereo not drawn) [Compound 46, N-(3-((5-(trifluoromethyl)isoxazol-3-yl)oxy)cyclopentyl)acrylamide] | 100 to 5000
C=CC(=O)N[C@@H]1CC[C@H](Oc2cccc(C(F)(F)F)c2)C1 (single isomer, unassigned) [Compound 41, N-((1R*,3S*)-3-(3-(trifluoromethyl)phenoxy)cyclopentyl)acrylamide] | ≤ 100
C#Cc1cccc(Oc2cccc(NC(=O)C=C)c2)c1 [Compound 2] | 100 to 5000
C=CC(=O)Nc1cccc(Oc2ccc(C(F)(F)F)cc2)c1 [Compound 38, N-(3-(4-(trifluoromethyl)phenoxy)phenyl)acrylamide] | ≤ 100
C=CC(=O)Nc1ccc(-c2cc(C(F)(F)F)on2)c(C)c1 [Compound 22, N-(3-methyl-4-(5-(trifluoromethyl)isoxazol-3-yl)phenyl)acrylamide] | ≤ 100
C=CC(=O)Nc1ccc(-c2cc(CCCC)on2)cc1 [Compound 26, N-(4-(5-butylisoxazol-3-yl)phenyl)acrylamide] | ≤ 100
C=C(F)C(=O)Nc1ccc2c(c1)CCC/C2=N\OCCCCC [Compound 29, (E)-2-fluoro-N-(5-((pentyloxy)imino)-5,6,7,8-tetrahydronaphthalen-2-yl)acrylamide] | 100 to 5000
C=CC(=O)Nc1ccc(-c2cc(C(F)(F)F)cnn2)cc1 [Compound 53, N-(4-(5-(trifluoromethyl)pyridazin-3-yl)phenyl)acrylamide] | 100 to 5000
C=CC(=O)Nc1ccc2c(c1)CC/C2=N/OCCCCC [Compound 8] | ≥ 5000
C=CC(=O)Nc1ccc(-c2ccn(CCCCC)n2)cc1 [Compound 24, N-(4-(1-pentyl-1H-pyrazol-3-yl)phenyl)acrylamide] | ≤ 100
C=CC(=O)Nc1ccc(-c2cncc(C(F)(F)F)c2)cc1 [Compound 52, N-(4-(5-(trifluoromethyl)pyridin-3-yl)phenyl)acrylamide] | ≤ 100
C=CC(=O)Nc1cccc(Oc2ccc(C(F)(F)F)cn2)c1 [Compound 14, N-(3-((5-(trifluoromethyl)pyridin-2-yl)oxy)phenyl)acrylamide] | ≤ 100
C#CCCCO/N=C1\CCCc2cc(NC(=O)C=C)ccc21 [Compound 5] | ≥ 5000
C=CC(=O)Nc1ccc2nc(OCCCC)ccc2c1 [Compound 18, N-(2-butoxyquinolin-6-yl)acrylamide] | ≤ 100
C=CC(=O)Nc1ccc2c(c1)CCc1c-2noc1CCCC [Compound 27, N-(3-butyl-4,5-dihydronaphtho[1,2-c]isoxazol-7-yl)acrylamide] | 100 to 5000
C=CC(=O)Nc1ccc(Oc2cccc(C(F)(F)F)c2)s1 [Compound 11, N-(5-(3-(trifluoromethyl)phenoxy)thiophen-2-yl)acrylamide] | ≤ 100
C=CC(=O)Nc1ccc(-n2ncc(C(F)(F)F)n2)c(Cl)c1 [Compound 35, N-(3-chloro-4-(4-(trifluoromethyl)-2H-1,2,3-triazol-2-yl)phenyl)acrylamide] | ≤ 100
C=CC(=O)Nc1ccc(-c2noc(C(F)(F)F)n2)c(Cl)c1 [Compound 33, N-(3-chloro-4-(5-(trifluoromethyl)-1,2,4-oxadiazol-3-yl)phenyl)acrylamide] | ≤ 100
C=CC(=O)Nc1ccc2c(Oc3ccc(C(F)(F)F)cn3)cccc2c1 [Compound 21, N-(5-((5-(trifluoromethyl)pyridin-2-yl)oxy)naphthalen-2-yl)acrylamide] | ≤ 100
C=CC(=O)Nc1ccc2c(c1)CCc1cn(CCCCC)nc1-2 [Compound 25] | 100 to 5000
C=CC(=O)Nc1ccc(-c2cc(C(F)(F)F)sn2)cc1 [Compound 54, N-(4-(5-(trifluoromethyl)isothiazol-3-yl)phenyl)acrylamide] | ≤ 100
C=CC(=O)Nc1ccc2c(OCCCCC)cccc2c1 [Compound 20, N-(5-(pentyloxy)naphthalen-2-yl)acrylamide] | ≤ 100
C=CC(=O)Nc1ccc(-n2cc(C(F)(F)F)nn2)c(Cl)c1 [Compound 34, N-(3-chloro-4-(4-(trifluoromethyl)-1H-1,2,3-triazol-1-yl)phenyl)acrylamide] | ≤ 100
C=CC(=O)NC1CC2(C1)CC(Oc1cccc(C(F)(F)F)c1)C2 (stereo not drawn) [Compound 64, N-(6-(3-(trifluoromethyl)phenoxy)spiro[3.3]heptan-2-yl)acrylamide] | ≥ 5000

The next lines start with the values.

IC50 [nM] | SMILES
100 to 5000 | C=CC(=O)NC1COCC(Oc2cccc(C(F)(F)F)c2)C1 (stereo not drawn) [Compound 39, N-(5-(3-(trifluoromethyl)phenoxy)tetrahydro-2H-pyran-3-yl)acrylamide]
≤ 100 | C=CC(=O)Nc1cccc(Oc2cccc(OC)c2)c1 [Compound 9, N-(3-(3-methoxyphenoxy)phenyl)acrylamide]
≥ 5000 | C#Cc1cccc(Oc2ccc(NC(=O)C=C)cc2)c1 [Compound 3]
100 to 5000 | C=CC(=O)NC1CCC(Oc2cccc(C(F)(F)F)c2)C1 (stereo not drawn) [Compound 45, N-(3-(3-(trifluoromethyl)phenoxy)cyclopentyl)acrylamide]
≤ 100 | C=CC(=O)Nc1cccc(OC2CCC(F)(F)CC2)c1 [Compound 40, N-(3-((4,4-difluorocyclohexyl)oxy)phenyl)acrylamide]
100 to 5000 | C=CC(=O)N[C@H]1CC[C@@H](Oc2cccc(C(F)(F)F)c2)C1 (single isomer, unassigned) [Compound 42, N-((1S*,3R*)-3-(3-(trifluoromethyl)phenoxy)cyclopentyl)acrylamide]
100 to 5000 | C=CC(=O)N1CC(Cc2ccc(C(F)(F)F)cc2)C1 [Compound 59, 1-(3-(4-(trifluoromethyl)benzyl)azetidin-1-yl)prop-2-en-1-one]
≤ 100 | C=CC(=O)Nc1ccc(-c2cc(C(F)(F)F)no2)c(Cl)c1 [Compound 32, N-(3-chloro-4-(3-(trifluoromethyl)isoxazol-5-yl)phenyl)acrylamide]
≤ 100 | C=CC(=O)Nc1cc(F)cc(Oc2ccc(C(F)(F)F)cc2)c1 [Compound 12, N-(3-fluoro-5-(4-(trifluoromethyl)phenoxy)phenyl)acrylamide]
≤ 100 | C=CC(=O)Nc1ccc2c(c1)CCC/C2=N\OCCOCC [Compound 48, (E)-N-(5-((2-ethoxyethoxy)imino)-5,6,7,8-tetrahydronaphthalen-2-yl)acrylamide]
≤ 100 | C=CC(=O)NC1CC(COc2cccc(C(F)(F)F)c2)C1 (stereo not drawn) [Compound 58, N-(3-((3-(trifluoromethyl)phenoxy)methyl)cyclobutyl)acrylamide]
≤ 100 | C=CC(=O)Nc1cccc(Oc2cc(C(F)(F)F)ccn2)c1 [Compound 13, N-(3-((4-(trifluoromethyl)pyridin-2-yl)oxy)phenyl)acrylamide]
≤ 100 | C=CC(=O)Nc1cc(Oc2cccc(C(F)(F)F)c2)ccc1F [Compound 37, N-(2-fluoro-5-(3-(trifluoromethyl)phenoxy)phenyl)acrylamide]
≤ 100 | CCCCCO/N=C1\CCc2cc(NC(=O)/C=C/CN(C)C)ccc21 [Compound 15, (E)-4-(dimethylamino)-N—((E)-1-((pentyloxy)imino)-2,3-dihydro-1H-inden-5-yl)but-2-enamide]
≥ 5000 | C#Cc1cccc(Oc2ccccc2NC(=O)CCl)c1 [Compound 1]
100 to 5000 | C=CC(=O)Nc1ccc(-c2cc(C(C)(C)C)on2)cc1 [Compound 65, N-(4-(5-(tert-butyl)isoxazol-3-yl)phenyl)acrylamide]
≤ 100 | C=CC(=O)NC12CC(COc3cccc(C(F)(F)F)c3)(C1)C2 [Compound 62, N-(3-((3-(trifluoromethyl)phenoxy)methyl)bicyclo[1.1.1]pentan-1-yl)acrylamide]
≥ 5000 | C#CCCCO/N=C1/CCc2cc(NC(=O)C=C)ccc21 [Compound 7]
100 to 5000 | C=CC(=O)Nc1ccc(-c2cc(C(F)(F)F)ccn2)cc1 [Compound 51, N-(4-(4-(trifluoromethyl)pyridin-2-yl)phenyl)acrylamide]
100 to 5000 | C=CC(=O)Nc1ccc(-c2ccn(CC(F)(F)F)n2)cc1 [Compound 55, N-(4-(1-(2,2,2-trifluoroethyl)-1H-pyrazol-3-yl)phenyl)acrylamide]
≤ 100 | C=CC(=O)Nc1cc(F)cc(Oc2cccc(C(F)(F)F)c2)c1 [Compound 36, N-(3-fluoro-5-(3-(trifluoromethyl)phenoxy)phenyl)acrylamide]
≤ 100 | C=CC(=O)Nc1ccc(-c2nocc2C(F)(F)F)cc1 [Compound 31, N-(4-(4-(trifluoromethyl)isoxazol-3-yl)phenyl)acrylamide]
